Laboratory results taken from paper PMC9870890 (Nature Communications, 2023).
Values joined by “and” are separate entries in the source; they are usually repeats but may differ in a detail not shown here. Identical values can stand only once. Like-named read-outs stand apart in the source and are kept apart here.

Target: T1, M2R (Homo sapiens, UniProt P08172)
T1 sequence (P08172 1-466): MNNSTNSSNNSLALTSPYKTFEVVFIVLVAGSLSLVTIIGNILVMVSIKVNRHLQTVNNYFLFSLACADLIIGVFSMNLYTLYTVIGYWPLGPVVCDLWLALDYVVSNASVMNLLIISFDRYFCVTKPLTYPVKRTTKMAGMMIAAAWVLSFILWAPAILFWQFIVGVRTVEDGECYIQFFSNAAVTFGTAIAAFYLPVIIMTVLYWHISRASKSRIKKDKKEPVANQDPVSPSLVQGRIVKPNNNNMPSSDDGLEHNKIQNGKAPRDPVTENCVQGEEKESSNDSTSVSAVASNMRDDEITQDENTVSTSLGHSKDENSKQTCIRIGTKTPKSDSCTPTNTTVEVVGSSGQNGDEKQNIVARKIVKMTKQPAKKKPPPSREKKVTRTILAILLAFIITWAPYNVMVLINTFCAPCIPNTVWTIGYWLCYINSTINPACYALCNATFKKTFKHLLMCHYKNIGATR
Assay: cell-based
Design: expressed in transfected cells; host or cells: HEK 293T
Conditions: for Emax: HEK-293T
Procedure: Determination of β-arrestin-2 recruitment was performed applying the PathHunter assay (DiscoverX, Birmingham, U.K.) which is based on fragment complementation of β-galactosidase as described. In detail, HEK293T cells were transfected with the flag-tagged M2 receptor carrying the PKA fragment for enzyme complementation and transferred into 384-well micro plates. […] Determination of chemoluminescence was done with a Clariostar plate reader (BMG, Ortenberg, Germany). […] Normalized curves from three to five individual experiments each done in duplicate were analyzed by non-linear regression applying the algorithms in Prism 8.0 (GraphPad, San Diego, CA) to get dose-response curves representing average EC50 and Emax value.

## C[N+](C)(C)CC#CCOC1=NOCC1 [Ixo, iperoxo]
  EC50: 0.35 ± 0.08 nM
read-out: Emax in % of acetylcholin, arrestin recruitment by iperoxo, agonist + 0.1 µM LY
  Emax: 168%
read-out: Emax in % of acetylcholin, arrestin recruitment by iperoxo, agonist + 3 µM LY
  Emax: 172%
read-out: Emax in % of acetylcholin, arrestin recruitment by iperoxo, agonist + 30 µM LY
  Emax: 170%
read-out: Emax in % of acetylcholin, arrestin recruitment by iperoxo, agonist + 100 µM LY
  Emax: 170%
read-out: arrestin recruitment as % max effect of acetylcholin, iperoxo log [M] 3-6
  Emax: 135%
read-out: arrestin recruitment as % max effect of acetylcholin, iperoxo log [M] 3-7
  Emax: 142%
read-out: arrestin recruitment as % max effect of acetylcholin, iperoxo log [M] 3-8
  Emax: 138%
read-out: arrestin recruitment as % max effect of acetylcholin, iperoxo log [M] 3-8 + 1µM LY2119620
  Emax: 150%
read-out: arrestin recruitment as % max effect of acetylcholin, iperoxo log [M] 3-8 + 10µM LY2119620
  Emax: 154%
read-out: arrestin recruitment as % max effect of acetylcholin, iperoxo log [M] 3-8 + 30µM LY2119620
  Emax: 168%
read-out: arrestin recruitment as % max effect of acetylcholin, iperoxo log [M] 3-8 + 100µM LY2119620
  Emax: 160%
read-out: arrestin recruitment as % max effect of acetylcholin, iperoxo log [M] 3-9 + 0.1µM LY2119620
  Emax: 160%
read-out: arrestin recruitment as % max effect of acetylcholin, iperoxo log [M] 3-9 + 3µM LY2119620
  Emax: 166%
read-out: arrestin recruitment as % max effect of acetylcholin, iperoxo log [M] 3-9 + 30µM LY2119620
  Emax: 175%
read-out: arrestin recruitment as % max effect of acetylcholin, iperoxo log [M] 3-9 + 100µM LY2119620
  Emax: 159%
read-out: arrestin recruitment as % max effect of acetylcholin, iperoxo log [M] 3-10 + 30µM LY2119620
  Emax: 141%
read-out: arrestin recruitment as % max effect of acetylcholin, iperoxo log [M] 3-10 + 100µM LY2119620
  Emax: 125%
read-out: arrestin recruitment as % max effect of acetylcholin, iperoxo log [M] 3-11 + 0.1µM LY2119620
  Emax: 19.4%
read-out: arrestin recruitment as % max effect of acetylcholin, iperoxo log [M] 3-11 + 1µM LY2119620
  Emax: 30.8%
read-out: arrestin recruitment as % max effect of acetylcholin, iperoxo log [M] 3-11 + 3µM LY2119620
  Emax: 72.1%
read-out: arrestin recruitment as % max effect of acetylcholin, iperoxo log [M] 3-11 + 10µM LY2119620
  Emax: 77.5%
read-out: arrestin recruitment as % max effect of acetylcholin, iperoxo log [M] 3-11 + 100µM LY2119620
  Emax: 58.2%
read-out: arrestin recruitment as % max effect of acetylcholin, iperoxo log [M] -5
  Emax: 152%
read-out: arrestin recruitment as % max effect of acetylcholin, iperoxo log [M] -6 + 0.1µM LY2119620
  Emax: 163%
read-out: arrestin recruitment as % max effect of acetylcholin, iperoxo log [M] -6 + 1µM LY2119620
  Emax: 142%
read-out: arrestin recruitment as % max effect of acetylcholin, iperoxo log [M] -6 + 3µM LY2119620
  Emax: 170%
read-out: arrestin recruitment as % max effect of acetylcholin, iperoxo log [M] -6 + 10µM LY2119620
  Emax: 155%
read-out: arrestin recruitment as % max effect of acetylcholin, iperoxo log [M] -6 + 30µM LY2119620
  Emax: 180%
read-out: arrestin recruitment as % max effect of acetylcholin, iperoxo log [M] -6 + 100µM LY2119620
  Emax: 166%
read-out: arrestin recruitment as % max effect of acetylcholin, iperoxo log [M] -7 + 30µM LY2119620
  Emax: 168%
read-out: arrestin recruitment as % max effect of acetylcholin, iperoxo log [M] -7 + 100µM LY2119620
  Emax: 161%
read-out: arrestin recruitment as % max effect of acetylcholin, iperoxo log [M] -8 + 0.1µM LY2119620
  Emax: 162%
read-out: arrestin recruitment as % max effect of acetylcholin, iperoxo log [M] -8 + 3µM LY2119620
  Emax: 149%
read-out: arrestin recruitment as % max effect of acetylcholin, iperoxo log [M] -8 + 30µM LY2119620
  Emax: 176%
read-out: arrestin recruitment as % max effect of acetylcholin, iperoxo log [M] -8 + 100µM LY2119620
  Emax: 160%
read-out: arrestin recruitment as % max effect of acetylcholin, iperoxo log [M] -10 + 3µM LY2119620
  Emax: 105%
read-out: arrestin recruitment as % max effect of acetylcholin, iperoxo log [M] -10 + 100µM LY2119620
  Emax: 89%
read-out: arrestin recruitment as % max effect of acetylcholin, iperoxo log [M] -11 + 3µM LY2119620
  Emax: 44.6%
read-out: arrestin recruitment as % max effect of acetylcholin, iperoxo log [M] -11 + 30µM LY2119620
  Emax: 75.7%
read-out: arrestin recruitment as % max effect of acetylcholin, iperoxo log [M] -11 + 100µM LY2119620
  Emax: 58.6%
read-out: arrestin recruitment as % max effect of acetylcholin, iperoxo log [M] -12 + 3µM LY2119620
  Emax: 37.8%
read-out: arrestin recruitment as % max effect of acetylcholin, iperoxo log [M] -12 + 100µM LY2119620
  Emax: 62.6%
read-out: arrestin recruitment as % max effect of acetylcholin, iperoxo log [M] -13 + 3µM LY2119620
  Emax: 33%
read-out: arrestin recruitment as % max effect of acetylcholin, iperoxo log [M] -13 + 10µM LY2119620
  Emax: 26.7%
read-out: arrestin recruitment as % max effect of acetylcholin, iperoxo log [M] -13 + 30µM LY2119620
  Emax: 59.3%
read-out: arrestin recruitment as % max effect of acetylcholin, iperoxo log [M] -13 + 100µM LY2119620
  Emax: 44.2%
read-out: enhancement of efficacy (Emax) in β-arrestin recruitment, presence of high concentration of LY2119620
  Emax: ~15%
Iperoxo log [M] 3-9
  arrestin recruitment as % max effect of acetylcholin: 135.8% and 120.8% and 147.9% and 130.1%
Iperoxo log [M] 3-9 + 0.1µM LY2119620
  arrestin recruitment as % max effect of acetylcholin: 156.9%
Iperoxo log [M] 3-9 + 1µM LY2119620
  arrestin recruitment as % max effect of acetylcholin: 109.3% and 162.2% and 161.4% and 201.0%
Iperoxo log [M] 3-9 + 10µM LY2119620
  arrestin recruitment as % max effect of acetylcholin: 130.3% and 161.0% and 169.5%
Iperoxo log [M] 3-9 + 30µM LY2119620
  arrestin recruitment as % max effect of acetylcholin: 168.8% and 163.9%
Iperoxo log [M] 3-10 + 0.1µM LY2119620
  arrestin recruitment as % max effect of acetylcholin: 82.7% and 92.1% and 124.5%
Iperoxo log [M] 3-10 + 3µM LY2119620
  arrestin recruitment as % max effect of acetylcholin: 147.1% and 158.1% and 137.1% and 138.5%
Iperoxo log [M] 3-10 + 10µM LY2119620
  arrestin recruitment as % max effect of acetylcholin: 103.3% and 152.4% and 152.5% and 133.9%
Iperoxo log [M] 3-10 + 30µM LY2119620
  arrestin recruitment as % max effect of acetylcholin: 133.2% and 130.6% and 122.9%
Iperoxo log [M] 3-10 + 100µM LY2119620
  arrestin recruitment as % max effect of acetylcholin: 127.5% and 129.1% and 112.5%
Iperoxo log [M] -7 + 0.1µM LY2119620
  arrestin recruitment as % max effect of acetylcholin: 171.1% and 186.3% and 156.7% and 161.0%
Iperoxo log [M] -7 + 1µM LY2119620
  arrestin recruitment as % max effect of acetylcholin: 129.3% and 176.9% and 172.6%
Iperoxo log [M] -7 + 3µM LY2119620
  arrestin recruitment as % max effect of acetylcholin: 210.7% and 168.6% and 182.6% and 172.8%
Iperoxo log [M] -7 + 10µM LY2119620
  arrestin recruitment as % max effect of acetylcholin: 131.2% and 159.6% and 162.7% and 198.6%
Iperoxo log [M] -7 + 30µM LY2119620
  arrestin recruitment as % max effect of acetylcholin: 161.3% and 181.0% and 168.2%
Iperoxo log [M] -7 + 100µM LY2119620
  arrestin recruitment as % max effect of acetylcholin: 157.1% and 172.7% and 165.6%
Iperoxo log [M] -8 + 0.1µM LY2119620
  arrestin recruitment as % max effect of acetylcholin: 168.3% and 154.3% and 173.5%
Iperoxo log [M] -8 + 1µM LY2119620
  arrestin recruitment as % max effect of acetylcholin: 124.1% and 172.3% and 160.8% and 152.0%
Iperoxo log [M] -8 + 3µM LY2119620
  arrestin recruitment as % max effect of acetylcholin: 158.0% and 166.2% and 162.4%
Iperoxo log [M] -8 + 10µM LY2119620
  arrestin recruitment as % max effect of acetylcholin: 139.2% and 163.1% and 168.9% and 181.1%
Iperoxo log [M] -8 + 30µM LY2119620
  arrestin recruitment as % max effect of acetylcholin: 176.5% and 174.9% and 157.1%
Iperoxo log [M] -8 + 100µM LY2119620
  arrestin recruitment as % max effect of acetylcholin: 165.6% and 153.6% and 149.1%
Iperoxo log [M] -9 + 0.1µM LY2119620
  arrestin recruitment as % max effect of acetylcholin: 127.2% and 148.3% and 150.9% and 143.2%
Iperoxo log [M] -9 + 3µM LY2119620
  arrestin recruitment as % max effect of acetylcholin: 137.5% and 153.6% and 172.9% and 151.5%
Iperoxo log [M] -9 + 10µM LY2119620
  arrestin recruitment as % max effect of acetylcholin: 118.8% and 155.2% and 169.6% and 149.0%
Iperoxo log [M] -9 + 30µM LY2119620
  arrestin recruitment as % max effect of acetylcholin: 161.0% and 151.6% and 144.8% and 137.0%
Iperoxo log [M] -9 + 100µM LY2119620
  arrestin recruitment as % max effect of acetylcholin: 158.6% and 154.0% and 158.3% and 124.7%
Iperoxo log [M] -10 + 10µM LY2119620
  arrestin recruitment as % max effect of acetylcholin: 79.6% and 137.1%
Iperoxo log [M] -10 + 30µM LY2119620
  arrestin recruitment as % max effect of acetylcholin: 112.5% and 108.5% and 109.4%
Iperoxo log [M] -10 + 100µM LY2119620
  arrestin recruitment as % max effect of acetylcholin: 85.8% and 82.4% and 75.4%
